Assay results published in patent US20230357239A1, “PYRIDO[2,3-D]PYRIMIDIN-4-AMINES AS SOS1 INHIBITORS” (Bayer Aktiengesellschaft, priority 2020, published 2023).

Molecular target: human SOS1 (SOS1) with human K-RasG12C (Homo sapiens (Human), UniProt Q07889)
Experiment: hK-RasG12C interaction assay with hSOS1 (HTRF)
Assay type: binding
Details: GST-hK-RasG12C and His-hSOS1, 60 min incubation at 20° C, mean, read-out: K-RasG12C - SOS interaction assay IC50 - [mol/l] (mean)
Description: Biochemical Assay: hK-RasG12C Interaction Assay with hSOS1
This assay quantifies the equilibrium interaction of human SOS1 (SOS1) with human K-Ras^G12C (K-RasG12C). Detection of the interaction is achieved by measuring homogenous time-resolved fluorescence resonance energy transfer (HTRF) from antiGST-Europium (FRET donor) bound to GST-K-RasG12C to anti-6His-XL665 bound to His-tagged hSOS1 (FRET-acceptor).
The assay buffer containes 5 mM HEPES pH 7.4 (Applichem), 150 mM NaCl (Sigma), 10 mM EDTA (Promega), 1 mM DTT (Thermofisher), 0.05% BSA Fraction V, pH 7.0, (ICN Biomedicals), 0.0025% (v/v) Igepal (Sigma) and 100 mM KF (FLUKA).
Concentrations of protein batches used are optimized to be within the linear range of the HTRF signal. A Ras working solution is prepared in assay buffer containing typically 10 nM GST-hK-RasG12C and 2 nM antiGST-Eu(K) (Cisbio, France). A SOS1 working solution is prepared in assay buffer containing typically 20 nM His-hSOS1 and 10 nM anti-6His-XL665 (Cisbio, France). An inhibitor control solution is prepared in assay buffer containing 10 nM anti-6His-XL665 without SOS1.
Fifty nl of a 100-fold concentrated solution of the test compound in DMSO are transferred into a black microtiter test plate (384 or 1536, Greiner Bio-One, Germany).
For this, either a Hummingbird liquid handler (Digilab, MA, USA) or an Echo acoustic system (Labcyte, CA, USA) is used.
All steps of the assay are performed at 20° C. A volume of 2.5 μl of the Ras working solution is added to all wells of the test plate using a Multidrop dispenser (Thermo Labsystems). After 2 min preincubation, 2.5 μl of the SOS1 working solution are added to all wells except for those wells at the side of the test plate that are subsequently filled with 2.5 μl of the inhibitor control solution. After 60 min incubation the fluorescence is measured with a Pherastar (BMG, Germany) using the HTRF module (excitation 337 nm, emission 1: 620 nm, emission 2: 665 nm).
The ratiometric data (emission 2 divided by emission 1) are normalized using the controls (DMSO=0% inhibition, inhibition control wells with inhibitor control solution=100% inhibition). […] IC50 values are calculated by 4-Parameter fitting using a commercial software package (Genedata Screener, Switzerland).

Chain of human SOS1 (SOS1) with human K-RasG12C (Q07889 564-1049): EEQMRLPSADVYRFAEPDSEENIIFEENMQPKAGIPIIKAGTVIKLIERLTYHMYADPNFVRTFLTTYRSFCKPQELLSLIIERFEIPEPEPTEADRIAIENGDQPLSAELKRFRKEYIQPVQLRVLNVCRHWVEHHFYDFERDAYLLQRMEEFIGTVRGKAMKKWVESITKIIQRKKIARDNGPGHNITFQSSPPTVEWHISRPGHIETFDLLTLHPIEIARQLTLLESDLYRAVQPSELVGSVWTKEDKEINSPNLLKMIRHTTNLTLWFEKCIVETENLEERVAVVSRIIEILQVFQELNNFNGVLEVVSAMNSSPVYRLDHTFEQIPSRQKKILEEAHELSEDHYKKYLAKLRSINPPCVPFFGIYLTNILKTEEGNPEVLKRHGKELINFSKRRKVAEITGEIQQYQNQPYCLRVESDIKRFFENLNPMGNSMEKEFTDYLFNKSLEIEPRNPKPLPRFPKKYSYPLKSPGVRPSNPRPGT

IC50 [nM] | SMILES
2.93 | CC(=O)N1C[C@@H]2C[C@H]1CN2c1cnc2nc(C)nc(N[C@H](C)c3cccc(C(F)(F)C(C)(C)O)c3F)c2c1 [Example 50, 1-{(1 S,4S)-5-[4-({(1R)-1-[3-(1,1-difluoro-2-hydroxy-2-methylpropyl)-2-fluorophenyl]ethyl}amino)-2-methylpyrido[2,3-d]pyrimidin-6-yl]-2,5-diazabicyclo[2.2.1]heptan-2-yl}ethan-1-one]
9.79 | CC(=O)N1C[C@H]2C[C@@H]1CN2c1cnc2nc(C)nc(N[C@H](C)c3cccc(C(F)(F)C(C)(C)O)c3F)c2c1 [Example 51, 1-{(1 R,4R)-5-[4-({(1R)-1-[3-(1,1-difluoro-2-hydroxy-2-methylpropyl)-2-fluorophenyl]ethyl}amino)-2-methylpyrido[2,3-d]pyrimidin-6-yl]-2,5-diazabicyclo[2.2.1]heptan-2-yl}ethan-1-one]
4.48 | Cc1nc(N[C@H](C)c2cccc(C(F)(F)C(C)(C)O)c2F)c2cc(N3CCN(C)CC3)cnc2n1 [Example 52, 1,1-difluoro-1-{2-fluoro-3-[(1R)-1-{[2-methyl-6-(4-methylpiperazin-1-yl)pyrido[2,3-d]pyrimidin-4-yl]amino}ethyl]phenyl}-2-methylpropan-2-ol]
3.34 | CC(=O)N1CCN(c2cnc3nc(C)nc(N[C@H](C)c4cccc(C(F)(F)C(C)(C)O)c4F)c3c2)CC1 [Example 53, 1-{4-[4-({(1R)-1-[3-(1,1-difluoro-2-hydroxy-2-methylpropyl)-2-fluorophenyl]ethyl}amino)-2-methylpyrido[2,3-d]pyrimidin-6-yl]piperazin-1-yl}ethan-1-one]
3.52 | CC(=O)N1CC2(C1)CN(c1cnc3nc(C)nc(N[C@H](C)c4cccc(C(F)(F)C(C)(C)O)c4F)c3c1)C2 [Example 54, 1-{6-[4-({(1R)-1-[3-(1,1-difluoro-2-hydroxy-2-methylpropyl)-2-fluorophenyl]ethyl}amino)-2-methylpyrido[2,3-d]pyrimidin-6-yl]-2,6-diazaspiro[3.3]heptan-2-yl}ethan-1-one]
4.46 | CC(=O)N[C@@H]1CCN(c2cnc3nc(C)nc(N[C@H](C)c4cccc(C(F)(F)C(C)(C)O)c4F)c3c2)C1 [Example 55, N-{(3R)-1-[4-({(1R)-1-[3-(1,1-difluoro-2-hydroxy-2-methylpropyl)-2-fluorophenyl]ethyl}amino)-2-methylpyrido[2,3-d]pyrimidin-6-yl]pyrrolidin-3-yl}acetamide]
14.1 | CC(=O)N1CC=C(c2cc3c(N[C@H](C)c4cccc(C(F)F)c4F)nc(C)nc3nc2C)CC1 [Example 56, 1-{4-[4-({(1R)-1-[3-(difluoromethyl)-2-fluorophenyl]ethyl}amino)-2,7-dimethylpyrido[2,3-d]pyrimidin-6-yl]-3,6-dihydropyridin-1(2H)-yl}ethan-1-one]
9.81 | CC(=O)N1CCC(c2cc3c(N[C@H](C)c4cccc(C(F)F)c4F)nc(C)nc3nc2C)CC1 [Example 57, 1-{4-[4-({(1R)-1-[3-(difluoromethyl)-2-fluorophenyl]ethyl}amino)-2,7-dimethylpyrido[2,3-d]pyrimidin-6-yl]piperidin-1-yl}ethan-1-one]
15.9 | Cc1nc(N[C@H](C)c2cccc(C(F)(F)F)c2C)c2cc(N3CCCS3(=O)=O)c(C)nc2n1 [Example 58, 2-[2,7-dimethyl-4-({(1R)-1-[2-methyl-3-(trifluoromethyl)phenyl]ethyl}amino)pyrido[2,3-d]pyrimidin-6-yl]-1 lambda^6,2-thiazolidine-1,1-dione]
7.23 | Cc1nc(N[C@H](C)c2cccc(C(F)(F)C(C)(C)O)c2F)c2cc(N3CCCS3(=O)=O)c(C)nc2n1 [Example 59, 2-[4-({(1R)-1-[3-(1,1-difluoro-2-hydroxy-2-methylpropyl)-2-fluorophenyl]ethyl}amino)-2,7-dimethylpyrido[2,3-d]pyrimidin-6-yl]-1 lambda^6,2-thiazolidine-1,1-dione]
3410 | CC(=O)N1CC2(C1)CN(c1cc3c(N[C@H](C)c4cccc(C(F)(F)C(C)(C)O)c4F)nc(C)nc3nc1C)C2 [Example 60, 1-{6-[4-({(1R)-1-[3-(1,1-difluoro-2-hydroxy-2-methylpropyl)-2-fluorophenyl]ethyl}amino)-2,7-dimethylpyrido[2,3-d]pyrimidin-6-yl]-2,6-diazaspiro[3.3]heptan-2-yl}ethan-1-one]
2.53 | CC(=O)N1CCN(c2cnc3nc(C)nc(N[C@H](C)c4cccc(C(F)(F)F)c4C)c3c2)C(=O)C1 [Example 61, 4-acetyl-1-[2-methyl-4-({(1R)-1-[2-methyl-3-(trifluoromethyl)phenyl]ethyl}amino)pyrido[2,3-d]pyrimidin-6-yl]piperazin-2-one]
14.5 | CC(=O)N1CCC(c2cc3c(N[C@H](C)c4cccc(C(F)(F)C(C)(C)O)c4F)nc(C)nc3nc2C)=C(C)C1 [Example 62, 1-{4-[4-({(1R)-1-[3-(1,1-difluoro-2-hydroxy-2-methylpropyl)-2-fluorophenyl]ethyl}amino)-2,7-dimethylpyrido[2,3-d]pyrimidin-6-yl]-5-methyl-3,6-dihydropyridin-1(2H)-yl}ethan-1-one]
8.66 | CC(=O)N1CC2(C1)CN(c1cc3c(N[C@H](C)c4cccc(C(F)(F)F)c4C)nc(C)nc3nc1C)C2 [Example 63, 1-{6-[2,7-dimethyl-4-({(1R)-1-[2-methyl-3-(trifluoromethyl)phenyl]ethyl}amino)pyrido[2,3-d]pyrimidin-6-yl]-2,6-diazaspiro[3.3]heptan-2-yl}ethan-1-one]
4.35 | CC(=O)N1C[C@@H]2C[C@H]1CN2c1cc2c(N[C@H](C)c3cccc(C(F)(F)C(C)(C)O)c3F)nc(C)nc2nc1C [Example 64, 1-{(1 S,4S)-5-[4-({(1R)-1-[3-(1,1-difluoro-2-hydroxy-2-methylpropyl)-2-fluorophenyl]ethyl}amino)-2,7-dimethylpyrido[2,3-d]pyrimidin-6-yl]-2,5-diazabicyclo[2.2.1]heptan-2-yl}ethan-1-one]
5.72 | CC(=O)N1CC=C(c2cc3c(N[C@H](C)c4cccc(C(F)(F)C(C)(C)O)c4F)nc(C)nc3nc2C)CC1 [Example 65, 1-{4-[4-({(1R)-1-[3-(1,1-difluoro-2-hydroxy-2-methylpropyl)-2-fluorophenyl]ethyl}amino)-2,7-dimethylpyrido[2,3-d]pyrimidin-6-yl]-3,6-dihydropyridin-1(2H)-yl}ethan-1-one]
3.18 | CC(=O)N1CCC(c2cc3c(N[C@H](C)c4cccc(C(F)(F)C(C)(C)O)c4F)nc(C)nc3nc2C)CC1 [Example 66, 1-{4-[4-({(1R)-1-[3-(1,1-difluoro-2-hydroxy-2-methylpropyl)-2-fluorophenyl]ethyl}amino)-2,7-dimethylpyrido[2,3-d]pyrimidin-6-yl]piperidin-1-yl}ethan-1-one]
6.23 | CC(=O)N1CCN(c2cc3c(N[C@H](C)c4cccc(C(F)(F)C(C)(C)O)c4F)nc(C)nc3nc2C)CC1 [Example 67, 1-{4-[4-({(1R)-1-[3-(1,1-difluoro-2-hydroxy-2-methylpropyl)-2-fluorophenyl]ethyl}amino)-2,7-dimethylpyrido[2,3-d]pyrimidin-6-yl]piperazin-1-yl}ethan-1-one]
2.93 | CC(=O)N1CCN(c2cc3c(N[C@H](C)c4cccc(C(F)(F)F)c4C)nc(C)nc3nc2C)C(=O)C1 [Example 68, 4-acetyl-1-[2,7-dimethyl-4-({(1R)-1-[2-methyl-3-(trifluoromethyl)phenyl]ethyl}amino)pyrido[2,3-d]pyrimidin-6-yl]piperazin-2-one]
29.5 | CC(=O)N1CC2(C1)CN(c1cc3c(N[C@H](C)c4cccc(C(F)F)c4F)nc(C)nc3nc1C(F)(F)F)C2 [Example 69, 1-{6-[4-({(1R)-1-[3-(difluoromethyl)-2-fluorophenyl]ethyl}amino)-2-methyl-7-(trifluoromethyl)pyrido[2,3-d]pyrimidin-6-yl]-2,6-diazaspiro[3.3]heptan-2-yl}ethan-1-one]
5.47 | CC(=O)N1CC2(C1)CN(c1cc3c(N[C@H](C)c4cccc(C(F)(F)C(C)(C)O)c4F)nc(C)nc3nc1C(F)(F)F)C2 [Example 70, 1-{6-[4-({(1R)-1-[3-(1,1-difluoro-2-hydroxy-2-methylpropyl)-2-fluorophenyl]ethyl}amino)-2-methyl-7-(trifluoromethyl)pyrido[2,3-d]pyrimidin-6-yl]-2,6-diazaspiro[3.3]heptan-2-yl}ethan-1-one]
